The source of these data is publication PMC3434039, “Overexpression of an exotic thermotolerant β-glucosidase in trichoderma reesei and its significant increase in cellulolytic activity and saccharification of barley straw” (Microbial Cell Factories, 2012).

The experiment has as its target T1, Periconia sp. BGLI (recombinant β-glucosidase, bgl1) (Periconia sp. BCC 2871, UniProt A9UIG0, T284I/N305T).
T1 construct: full-length bgl1 (2601 bp cDNA, own signal peptide) expressed in T. reesei QM9414 under tef1 promoter, secreted, culture supernatant; predicted about 95 kDa, glycosylated
Put plainly: MUG zymogram after native PAGE of culture supernatant. The class given is biochemical. The following applies: 5 mM MUG, 50 mM sodium citrate, pH 5.0, 70 °C, 10 min. The source says: MUG zymogram after native PAGE of culture supernatant on Periconia sp.

T1 sequence (A9UIG0 entry or part of it T284I/N305T): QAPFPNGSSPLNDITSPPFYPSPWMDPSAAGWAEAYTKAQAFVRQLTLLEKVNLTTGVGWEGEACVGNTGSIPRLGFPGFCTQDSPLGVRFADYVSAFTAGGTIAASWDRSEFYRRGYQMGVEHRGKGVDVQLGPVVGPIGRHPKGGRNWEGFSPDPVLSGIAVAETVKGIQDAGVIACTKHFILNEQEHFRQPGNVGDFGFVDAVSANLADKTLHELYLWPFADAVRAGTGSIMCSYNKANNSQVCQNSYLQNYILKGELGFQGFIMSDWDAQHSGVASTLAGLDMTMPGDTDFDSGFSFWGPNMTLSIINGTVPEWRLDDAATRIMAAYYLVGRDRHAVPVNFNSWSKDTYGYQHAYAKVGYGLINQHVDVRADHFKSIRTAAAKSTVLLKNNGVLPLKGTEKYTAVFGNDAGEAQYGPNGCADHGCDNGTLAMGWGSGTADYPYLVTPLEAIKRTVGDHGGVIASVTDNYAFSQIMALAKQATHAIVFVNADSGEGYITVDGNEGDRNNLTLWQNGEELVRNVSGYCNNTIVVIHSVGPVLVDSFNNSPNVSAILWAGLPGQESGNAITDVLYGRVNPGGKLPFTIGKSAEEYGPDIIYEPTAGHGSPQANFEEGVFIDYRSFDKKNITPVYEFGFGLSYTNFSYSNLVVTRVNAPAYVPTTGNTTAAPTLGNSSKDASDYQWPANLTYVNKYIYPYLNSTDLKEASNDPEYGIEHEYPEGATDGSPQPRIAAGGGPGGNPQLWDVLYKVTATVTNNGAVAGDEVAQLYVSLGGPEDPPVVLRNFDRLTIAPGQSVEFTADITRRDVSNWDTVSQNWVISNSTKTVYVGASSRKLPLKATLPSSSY

On to `Cc1cc(=O)oc2cc(O[C@@H]3O[C@H](CO)[C@@H](O)[C@H](O)[C@H]3O)ccc12` [4-methylumbelliferyl β-D-glucopyranoside], for which the “MUG zymogram after native PAGE of culture supernatant” value is listed as “second active β- glucosidase with higher molecular weight was only obtained from the transformants”.
